The record followed here is the supplement of paper PMC4649846.

Where only a bound is given, the exact number is not on record here.

Assay [1] concerns MDA-MB-231. In words: drug sensitivity score (DSS); higher = more sensitive; extreme values may be limits of the assay. To be noted: incubation time: 72 h. The method in brief:
(§1)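 For the IC50 and drug sensitivity score, logistic dose–response curves were fitted in Dotmatics Studies. The score compares curve area with a reference area and is normalised by log of top response. Input data were CellTiter-Blue fluorescence readings from MDA-MB-231 cells, transfected a day earlier with BRCA1 or non-targeting control siRNA, that had spent 72 h at 37 °C and 5% CO2 at 4000 cells per well in 384-well plates with compounds at 5 concentrations.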

The test system of assay [2] is MDA-MB-231. To be noted: incubation time: 72 h. The method in brief:
as §1

[3] abbreviates: siRNA: siControl (non-targeting).

Turning to `COc1cccc2cc(-c3nc([C@H]4CC[C@H](C(=O)O)CC4)n4ncnc(N)c34)[nH]c12` [OSI-027], the drug sensitivity score is 7.16 in the assay with MDA-MB-231 [1] (siRNA: siBRCA1) and 7.26 in the assay with MDA-MB-231 [1] (setting [3]). Besides, the “IC50 of cell viability” value in the assay on MDA-MB-231 [2] (siRNA: siBRCA1) came out at 973 nM; in the assay with MDA-MB-231 [2] (setting [3]), 1080 nM.
For `CCCCCCCCc1ccc(CCC(N)(CO)CO)cc1` [Fingolimod], the drug sensitivity score with MDA-MB-231 [1] (siRNA: siBRCA1) came to 5.09; in the assay with MDA-MB-231 [1] (setting [3]) it was 7.79. Further, the “IC50 of cell viability” value was 3000 nM with MDA-MB-231 [2] (siRNA: siBRCA1) and 1710 nM in the assay on MDA-MB-231 [2] (setting [3]).
In the same order, the values of `CC(C)C[C@H](NC(=O)[C@H](CCc1ccccc1)NC(=O)CN1CCOCC1)C(=O)N[C@@H](Cc1ccccc1)C(=O)N[C@@H](CC(C)C)C(=O)[C@@]1(C)CO1` [Carfilzomib] are 39.3, 33.7, 4.01 nM and 13.6 nM.
With `CC[C@]1(O)C[C@@H]2CN(CCc3c([nH]c4ccccc34)[C@@](C(=O)OC)(c3cc4c(cc3OC)N(C)[C@H]3[C@@](O)(C(=O)OC)[C@H](OC(C)=O)[C@]5(CC)C=CCN6CC[C@]43[C@@H]65)C2)C1` [Vinblastine], the drug sensitivity score worked out at 31.4 in the assay on MDA-MB-231 [1] (siRNA: siBRCA1) and 30.9 in the assay on MDA-MB-231 [1] (setting [3]). Besides, the figures for the “IC50 of cell viability” value in the assay with MDA-MB-231 [2] (siRNA: siBRCA1) and in the assay on MDA-MB-231 [2] (setting [3]) were 5.72 nM and 5.65 nM, respectively.
Take `O=C(Nc1c[nH]nc1-c1nc2ccc(CN3CCOCC3)cc2[nH]1)NC1CC1` [AT9283]: the drug sensitivity score with MDA-MB-231 [1] (siRNA: siBRCA1) was determined as 16.5; with MDA-MB-231 [1] (setting [3]), 18.6. The entries for the “IC50 of cell viability” value with MDA-MB-231 [2] (siRNA: siBRCA1) and with MDA-MB-231 [2] (setting [3]) were 267 nM and 173 nM, respectively.
On to `CN(N=O)C(=O)N[C@@H](C=O)[C@@H](O)[C@H](O)[C@H](O)CO` [Streptozocin], for which the drug sensitivity score with MDA-MB-231 [1] (siRNA: siBRCA1) and in the assay with MDA-MB-231 [1] (setting [3]) was 0 throughout. Also, the “IC50 of cell viability” value with MDA-MB-231 [2] (siRNA: siBRCA1) and with MDA-MB-231 [2] (setting [3]) was more than 4170 nM in each case.
With `CC/C(=C(\c1ccccc1)c1ccc(OCCN(C)C)cc1)c1ccccc1` [Tamoxifen], the drug sensitivity score with MDA-MB-231 [1] (siRNA: siBRCA1) and in the assay on MDA-MB-231 [1] (setting [3]) was 0 throughout. Besides, the “IC50 of cell viability” value with MDA-MB-231 [2] (siRNA: siBRCA1) and in the assay on MDA-MB-231 [2] (setting [3]) was more than 4170 nM in each case.
`CNC(=O)c1ccccc1Sc1ccc2c(/C=C/c3ccccn3)n[nH]c2c1` [Axitinib]: the drug sensitivity score in the assay with MDA-MB-231 [1] (siRNA: siBRCA1) and in the assay with MDA-MB-231 [1] (setting [3]) was 0 each time. In addition, the “IC50 of cell viability” value in the assay on MDA-MB-231 [2] (siRNA: siBRCA1) and with MDA-MB-231 [2] (setting [3]) was more than 4170 nM throughout.
As for `COc1cc2nccc(Oc3ccc(NC(=O)Nc4cc(C)on4)c(Cl)c3)c2cc1OC` [Tivozanib], the drug sensitivity score in the assay on MDA-MB-231 [1] (siRNA: siBRCA1) was 3.36; with MDA-MB-231 [1] (setting [3]), 2.37. Also, the figures for the “IC50 of cell viability” value with MDA-MB-231 [2] (siRNA: siBRCA1) and in the assay with MDA-MB-231 [2] (setting [3]) were more than 4170 nM and 2460 nM, respectively.
Turning to `Cn1c(=O)n(-c2ccc(C(C)(C)C#N)cc2)c2c3cc(-c4cnc5ccccc5c4)ccc3ncc21` [NVP-BEZ235 (Dactolisib)], the drug sensitivity score in the assay with MDA-MB-231 [1] (siRNA: siBRCA1) was determined as 16.9; in the assay with MDA-MB-231 [1] (setting [3]) it was 16.6. Further, the “IC50 of cell viability” value stood at 8.83 nM in the assay with MDA-MB-231 [2] (siRNA: siBRCA1) and 10.2 nM in the assay on MDA-MB-231 [2] (setting [3]).
As to `CCCS(=O)(=O)Nc1ccc(F)c(C(=O)c2c[nH]c3ncc(-c4ccc(Cl)cc4)cc23)c1F` [PLX4032], the drug sensitivity score with MDA-MB-231 [1] (siRNA: siBRCA1) and in the assay with MDA-MB-231 [1] (setting [3]) was 0 throughout. Moreover, the “IC50 of cell viability” value in the assay on MDA-MB-231 [2] (siRNA: siBRCA1) and with MDA-MB-231 [2] (setting [3]) was more than 4170 nM in each case.
Take `CO[C@H]1C[C@@H]2CC[C@@H](C)[C@@](O)(O2)C(=O)C(=O)N2CCCC[C@H]2C(=O)O[C@H]([C@H](C)C[C@@H]2CC[C@@H](O)[C@H](OC)C2)CC(=O)[C@H](C)/C=C(\C)[C@@H](O)[C@@H](OC)C(=O)[C@H](C)C[C@H](C)/C=C/C=C/C=C/1C` [Rapamycin (Sirolimus)]: the drug sensitivity score was 15.5 in the assay on MDA-MB-231 [1] (siRNA: siBRCA1) and 15.3 in the assay on MDA-MB-231 [1] (setting [3]). The “IC50 of cell viability” value with MDA-MB-231 [2] (siRNA: siBRCA1) was 0.904 nM; in the assay on MDA-MB-231 [2] (setting [3]), less than 0.833 nM.
Take `S=P(N1CC1)(N1CC1)N1CC1` [Thiotepa]: the drug sensitivity score with MDA-MB-231 [1] (siRNA: siBRCA1) and with MDA-MB-231 [1] (setting [3]) was 0 in each case. The “IC50 of cell viability” value with MDA-MB-231 [2] (siRNA: siBRCA1) and in the assay on MDA-MB-231 [2] (setting [3]) was more than 4170 nM each time.
